Results taken from ChEMBL document CHEMBL1201861, “Genomics of Drug Sensitity in Cancer screening data, Wellcome Trust Sanger Institute”.

Legend:
Assay in all cases: cells
[1] = test system: CP50-MEL-B; assay type: functional, cell-based, Homo sapiens; conditions: Homo sapiens, CP50-MEL-B;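 note: growth inhibition of the human cell line, measured with a cell viability read-out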
Description: SANGER: Inhibition of human CP50-MEL-B cell growth in a cell viability assay.

[2] = test system: DEL; assay type: functional, cell-based; conditions: Homo sapiens;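 note: growth inhibition of the human DEL cell line, read out with a cell viability assay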
Description: SANGER: Inhibition of human DEL cell growth in a cell viability assay.

[3] = test system: DOHH-2; assay type: functional, cell-based; conditions: Homo sapiens;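 note: growth inhibition of human DOHH-2 cells, read out with a cell viability assay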
Description: SANGER: Inhibition of human DOHH-2 cell growth in a cell viability assay.

[4] = test system: DOK; assay type: functional, cell-based, Homo sapiens; conditions: Homo sapiens, DOK;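 note: cell viability assay read-out, values reflect inhibition of cell growth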
Description: SANGER: Inhibition of human DOK cell growth in a cell viability assay.

[5] = test system: Daoy; assay type: functional, cell-based, Homo sapiens; conditions: Homo sapiens, Daoy;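 note: daoy cell growth inhibition, read out as cell viability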
Description: SANGER: Inhibition of human Daoy cell growth in a cell viability assay.

[6] = test system: ETK-1; assay type: functional, cell-based, Homo sapiens; conditions: Homo sapiens, ETK-1;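 note: growth inhibition of human ETK-1 cells, read out with a cell viability assay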
Description: SANGER: Inhibition of human ETK-1 cell growth in a cell viability assay.

[7] = test system: EW-1; assay type: functional, cell-based, Homo sapiens; conditions: Homo sapiens, EW-1;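 note: growth inhibition of the human EW-1 cell line, read out by a cell viability assay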
Description: SANGER: Inhibition of human EW-1 cell growth in a cell viability assay.

[8] = test system: EW-18; assay type: functional, cell-based; conditions: Homo sapiens;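 note: growth inhibition of EW-18 cells, read out by a cell viability assay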
Description: SANGER: Inhibition of human EW-18 cell growth in a cell viability assay.

[9] = test system: EW-24; assay type: functional, cell-based; conditions: Homo sapiens;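 note: human EW-24 cancer cell line, growth inhibition read out via a cell viability assay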
Description: SANGER: Inhibition of human EW-24 cell growth in a cell viability assay.

[10] = test system: GCIY; assay type: functional, cell-based, Homo sapiens; conditions: Homo sapiens, GCIY;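 note: growth inhibition of the human GCIY cell line, read out by a cell viability assay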
Description: SANGER: Inhibition of human GCIY cell growth in a cell viability assay.

[11] = test system: HEC-1; assay type: functional, cell-based, Homo sapiens; conditions: Homo sapiens, HEC-1;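 note: growth inhibition of the cell line, read out with a cell viability assay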
Description: SANGER: Inhibition of human HEC-1 cell growth in a cell viability assay.

[12] = test system: HLE; assay type: functional, cell-based, Homo sapiens; conditions: Homo sapiens, HLE;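 note: growth inhibition of human HLE cells, read out by a cell viability assay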
Description: SANGER: Inhibition of human HLE cell growth in a cell viability assay.

[13] = test system: HuO-3N1; assay type: functional, cell-based, Homo sapiens; conditions: Homo sapiens, HuO-3N1;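 note: cell viability readout used to measure how strongly compounds suppress proliferation of human HuO-3N1 cells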
Description: SANGER: Inhibition of human HuO-3N1 cell growth in a cell viability assay.

[14] = test system: JAR; assay type: functional, cell-based, Homo sapiens; conditions: Homo sapiens, JAR;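 note: growth inhibition of human JAR cells determined with a cell viability assay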
Description: SANGER: Inhibition of human JAR cell growth in a cell viability assay.

[15] = test system: KU-19-19; assay type: functional, cell-based, Homo sapiens; conditions: Homo sapiens, KU-19-19
Description: SANGER: Inhibition of human KU-19-19 cell growth in a cell viability assay.

[16] = test system: L-428; assay type: functional, cell-based; conditions: Homo sapiens
Description: SANGER: Inhibition of human L-428 cell growth in a cell viability assay.

[17] = test system: LS-513; assay type: functional, cell-based, Homo sapiens; conditions: Homo sapiens, LS-513
Description: SANGER: Inhibition of human LS-513 cell growth in a cell viability assay.

[18] = test system: MEL-HO; assay type: functional, cell-based, Homo sapiens; conditions: Homo sapiens, MEL-HO
Description: SANGER: Inhibition of human MEL-HO cell growth in a cell viability assay.

[19] = test system: MKN-45; assay type: functional, cell-based, Homo sapiens; conditions: Homo sapiens, MKN-45;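 note: growth inhibition of human MKN-45 cells, measured with a cell viability assay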
Description: SANGER: Inhibition of human MKN45 cell growth in a cell viability assay.

[20] = test system: MZ2-MEL; assay type: functional, cell-based, Homo sapiens; conditions: Homo sapiens, MZ2-MEL;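 note: growth inhibition of MZ2-MEL cells read out with a cell viability assay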
Description: SANGER: Inhibition of human MZ2-MEL cell growth in a cell viability assay.

[21] = test system: NCI-H1838; assay type: functional, cell-based, Homo sapiens; conditions: Homo sapiens, NCI-H1838;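 note: growth inhibition of NCI-H1838 cells, determined with a cell viability readout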
Description: SANGER: Inhibition of human NCI-H1838 cell growth in a cell viability assay.

[22] = test system: NCI-H226; assay type: functional, cell-based, Homo sapiens; conditions: Homo sapiens, NCI-H226;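 note: cell viability read-out used to gauge growth inhibition of the cells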
Description: SANGER: Inhibition of human NCI-H226 cell growth in a cell viability assay.

[23] = test system: NCI-H510A; assay type: functional, cell-based; conditions: Homo sapiens;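 note: growth inhibition of NCI-H510A cells, read out with a cell viability assay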
Description: SANGER: Inhibition of human NCI-H510A cell growth in a cell viability assay.

[24] = test system: NCI-H727; assay type: functional, cell-based, Homo sapiens; conditions: Homo sapiens, NCI-H727;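 note: growth inhibition of human NCI-H727 cells, read out with a cell viability assay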
Description: SANGER: Inhibition of human NCI-H727 cell growth in a cell viability assay.

[25] = test system: NOS-1; assay type: functional, cell-based, Homo sapiens; conditions: Homo sapiens, NOS-1;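 note: growth inhibition of the human NOS-1 cell line, read out with a cell viability assay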
Description: SANGER: Inhibition of human NOS-1 cell growth in a cell viability assay.

[26] = test system: NUGC-3; assay type: functional, cell-based, Homo sapiens; conditions: Homo sapiens, NUGC-3;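 note: growth inhibition of human NUGC-3 cells, read out with a cell viability assay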
Description: SANGER: Inhibition of human NUGC-3 cell growth in a cell viability assay.

[27] = test system: RERF-LC-MS; assay type: functional, cell-based, Homo sapiens; conditions: Homo sapiens, RERF-LC-MS;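 note: growth inhibition of human RERF-LC-MS cells, read out by a cell viability assay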
Description: SANGER: Inhibition of human RERF-LC-MS cell growth in a cell viability assay.

[28] = test system: RKO; assay type: functional, cell-based, Homo sapiens; conditions: Homo sapiens, RKO;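 note: growth inhibition of human RKO cells, read out with a cell viability assay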
Description: SANGER: Inhibition of human RKO cell growth in a cell viability assay.

[29] = test system: RMG-I; assay type: functional, cell-based, Homo sapiens; conditions: Homo sapiens, RMG-I;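 note: growth inhibition of human RMG-I cells, read out with a cell viability assay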
Description: SANGER: Inhibition of human RMG-I cell growth in a cell viability assay.

[30] = test system: S-117; assay type: functional, cell-based, Homo sapiens; conditions: Homo sapiens, S-117
Description: SANGER: Inhibition of human S-117 cell growth in a cell viability assay.

[31] = test system: SF-539; assay type: functional, cell-based, Homo sapiens; conditions: Homo sapiens, SF-539;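 note: Read-out is a cell viability assay, with IC50 reflecting inhibition of cell growth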
Description: SANGER: Inhibition of human SF539 cell growth in a cell viability assay.

[32] = test system: SH-4; assay type: functional, cell-based, Homo sapiens; conditions: Homo sapiens, SH-4;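 note: growth inhibition of SH-4 cells, read out with a cell viability assay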
Description: SANGER: Inhibition of human SH-4 cell growth in a cell viability assay.

[33] = test system: SK-MEL-1; assay type: functional, cell-based; conditions: Homo sapiens;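 note: growth inhibition of human SK-MEL-1 cells, read out by a cell viability assay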
Description: SANGER: Inhibition of human SK-MEL-1 cell growth in a cell viability assay.

[34] = test system: SK-PN-DW; assay type: functional, cell-based; conditions: Homo sapiens;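 note: growth inhibition measured with a viability assay on these cells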
Description: SANGER: Inhibition of human SK-PN-DW cell growth in a cell viability assay.

[35] = test system: SNU-C2B; assay type: functional, cell-based, Homo sapiens; conditions: Homo sapiens, SNU-C2B;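 note: cell viability readout used to measure compound-driven suppression of SNU-C2B cell proliferation, IC50 marking half-maximal growth inhibition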
Description: SANGER: Inhibition of human SNU-C2B cell growth in a cell viability assay.

[36] = test system: SW1710; assay type: functional, cell-based, Homo sapiens; conditions: Homo sapiens, SW1710;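 note: growth inhibition of SW1710 cells, determined with a cell viability assay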
Description: SANGER: Inhibition of human SW1710 cell growth in a cell viability assay.

[37] = test system: SW48; assay type: functional, cell-based, Homo sapiens; conditions: Homo sapiens, SW48;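 note: growth inhibition of SW48 cells, read out with a cell viability assay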
Description: SANGER: Inhibition of human SW48 cell growth in a cell viability assay.

[38] = test system: SW684; assay type: functional, cell-based, Homo sapiens; conditions: Homo sapiens, SW684;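 note: growth inhibition of human SW684 cells, measured by a cell viability assay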
Description: SANGER: Inhibition of human SW684 cell growth in a cell viability assay.

[39] = test system: SW756; assay type: functional, cell-based, Homo sapiens; conditions: Homo sapiens, SW756;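 note: growth inhibition of human SW756 cells, read out with a cell viability assay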
Description: SANGER: Inhibition of human SW756 cell growth in a cell viability assay.

[40] = test system: T-24; assay type: functional, cell-based, Homo sapiens; conditions: Homo sapiens, T-24;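 note: growth inhibition of T-24 cells, read out with a cell viability assay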
Description: SANGER: Inhibition of human T-24 cell growth in a cell viability assay.

[41] = test system: T98G; assay type: functional, cell-based, Homo sapiens; conditions: Homo sapiens, T98G;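 note: growth inhibition of T98G cells, read out by a cell viability assay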
Description: SANGER: Inhibition of human T98G cell growth in a cell viability assay.

[42] = test system: 639-V; assay type: functional, cell-based, Homo sapiens; conditions: Homo sapiens, 639-V;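 note: growth inhibition of 639-V cells, read out with a cell viability assay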
Description: SANGER: Inhibition of human 639-V cell growth in a cell viability assay.

[43] = test system: ACHN; assay type: functional, cell-based, Homo sapiens; conditions: Homo sapiens, ACHN;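 note: cell viability read-out used to gauge how strongly growth of human ACHN cells is suppressed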
Description: SANGER: Inhibition of human ACHN cell growth in a cell viability assay.

[44] = test system: BCPAP; assay type: functional, cell-based, Homo sapiens; conditions: Homo sapiens, BCPAP;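 note: growth inhibition of BCPAP cells, read out in a cell viability assay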
Description: SANGER: Inhibition of human BCPAP cell growth in a cell viability assay.

[45] = test system: CAL-54; assay type: functional, cell-based, Homo sapiens; conditions: Homo sapiens, CAL-54;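 note: growth inhibition of CAL-54 cells, read out by a viability measurement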
Description: SANGER: Inhibition of human CAL-54 cell growth in a cell viability assay.

[46] = test system: TE-11; assay type: functional, cell-based, Homo sapiens; conditions: Homo sapiens, TE-11;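 note: growth inhibition of human TE-11 cells, read out by a cell viability assay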
Description: SANGER: Inhibition of human TE-11 cell growth in a cell viability assay.

[47] = test system: UACC-62; assay type: functional, cell-based, Homo sapiens; conditions: Homo sapiens, UACC-62;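 note: growth inhibition of human UACC-62 cells, read out by a cell viability assay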
Description: SANGER: Inhibition of human UACC-62 cell growth in a cell viability assay.

[48] = test system: UACC-893; assay type: functional, cell-based, Homo sapiens; conditions: Homo sapiens, UACC-893
Description: SANGER: Inhibition of human UACC-893 cell growth in a cell viability assay.

[49] = test system: CAPAN-1; assay type: functional, cell-based, Homo sapiens; conditions: Homo sapiens, CAPAN-1;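 note: growth suppression of CAPAN-1 cells, read out by a cell viability assay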
Description: SANGER: Inhibition of human CAPAN-1 cell growth in a cell viability assay.

[50] = test system: COLO-679; assay type: functional, cell-based, Homo sapiens; conditions: Homo sapiens, COLO-679
Description: SANGER: Inhibition of human COLO-679 cell growth in a cell viability assay.

With `O=C(NOCC1CC1)c1ccc(F)c(F)c1Nc1ccc(I)cc1Cl` [CI-1040] the IC50 [1] was 0.173 µM, the IC50 [2] was greater than 10 µM and the IC50 [3] was 8.2 µM. For the same compound, the IC50 [4] was 2.36 µM, the IC50 [5] was greater than 10 µM and the IC50 [6] was greater than 10 µM. It also gave an IC50 [7] greater than 10 µM, an IC50 [8] greater than 10 µM and an IC50 [9] greater than 10 µM. It also gave an IC50 [10] greater than 10 µM, an IC50 [11] greater than 10 µM and an IC50 [12] greater than 10 µM. For the same compound, the IC50 [13] was greater than 10 µM, the IC50 [14] was greater than 10 µM and the IC50 [15] was 3.17 µM. For the same compound, the IC50 [16] was greater than 10 µM, the IC50 [17] was 1.45 µM and the IC50 [18] was 0.277 µM. For the same compound, the IC50 [19] was 9.45 µM, the IC50 [20] was 2.11 µM and the IC50 [21] was greater than 10 µM. It also gave an IC50 [22] greater than 10 µM, an IC50 [23] greater than 10 µM and an IC50 [24] of 2.92 µM. For the same compound, the IC50 [25] was greater than 10 µM, the IC50 [26] was 5.49 µM and the IC50 [27] was 5.69 µM. It also gave an IC50 [28] of 8.89 µM, an IC50 [29] greater than 10 µM and an IC50 [30] greater than 10 µM. For the same compound, the IC50 [31] was greater than 10 µM, the IC50 [32] was 0.463 µM and the IC50 [33] was 1.23 µM. The IC50 [34] was greater than 10 µM, the IC50 [35] was greater than 10 µM and the IC50 [36] was 5.62 µM. The IC50 [37] was 6.95 µM, the IC50 [38] was greater than 10 µM and the IC50 [39] was greater than 10 µM. For the same compound, the IC50 [40] was 2.91 µM, the IC50 [41] was 9 µM and the IC50 [42] was 9.64 µM. For the same compound, the IC50 [43] was 7.03 µM, the IC50 [44] was 5.33 µM and the IC50 [45] was 5.03 µM. For the same compound, the IC50 [46] was greater than 10 µM, the IC50 [47] was greater than 10 µM and the IC50 [48] was greater than 10 µM. The IC50 [49] was greater than 10 µM and the IC50 [50] was 0.327 µM.

For `Nc1ccn([C@@H]2O[C@H](CO)[C@@H](O)[C@@H]2O)c(=O)n1` [CYTARABINE], the IC50 [1] was greater than 2 µM, the IC50 [2] was 0.875 µM and the IC50 [3] was 1.38 µM. For the same compound, the IC50 [4] was 0.904 µM, the IC50 [5] was 0.532 µM and the IC50 [6] was greater than 2 µM. It also gave an IC50 [7] of 0.139 µM, an IC50 [8] greater than 2 µM and an IC50 [9] of 0.794 µM. It also gave an IC50 [10] greater than 2 µM, an IC50 [11] of 1.79 µM and an IC50 [12] of 1.59 µM. The IC50 [13] was 1.33 µM, the IC50 [14] was 0.338 µM and the IC50 [15] was greater than 2 µM. For the same compound, the IC50 [16] was greater than 2 µM, the IC50 [17] was 0.38 µM and the IC50 [18] was greater than 2 µM. The IC50 [19] was 1.65 µM, the IC50 [20] was 1.43 µM and the IC50 [21] was greater than 2 µM. It also gave an IC50 [22] greater than 2 µM, an IC50 [23] of 0.0683 µM and an IC50 [24] greater than 2 µM. It also gave an IC50 [25] of 1.91 µM, an IC50 [26] of 0.589 µM and an IC50 [27] of 1.76 µM. It also gave an IC50 [28] of 0.599 µM, an IC50 [29] greater than 2 µM and an IC50 [30] greater than 2 µM. For the same compound, the IC50 [31] was 0.717 µM, the IC50 [32] was greater than 2 µM and the IC50 [33] was greater than 2 µM. It also gave an IC50 [34] of 0.416 µM, an IC50 [35] greater than 2 µM and an IC50 [36] of 1.73 µM. For the same compound, the IC50 [37] was 0.366 µM, the IC50 [38] was greater than 2 µM and the IC50 [39] was 0.719 µM. It also gave an IC50 [40] of 0.0786 µM, an IC50 [41] of 1.72 µM and an IC50 [42] greater than 2 µM. The IC50 [43] was 0.37 µM, the IC50 [44] was 0.501 µM and the IC50 [45] was 0.94 µM. The IC50 [46] was greater than 2 µM, the IC50 [47] was 0.666 µM and the IC50 [48] was greater than 2 µM. It also gave an IC50 [49] greater than 2 µM and an IC50 [50] greater than 2 µM.
